Laboratory results reported in the CheMixHub viscosity set.

Assay: xn = mol fraction of the nth substance listed

ClC(Cl)=C(Cl)Cl + CC(C)CCO
303.15 K, 101.33 kPa
Settings	viscosity [mPa·s]
x1 = 0.0975	2.635
x1 = 0.2467	2.045
x1 = 0.3283	1.773
x1 = 0.4163	1.524
x1 = 0.5256	1.293
x1 = 0.6182	1.148
x1 = 0.7334	1.013
x1 = 0.8214	0.934
x1 = 0.9161	0.864

CC(C)CCl + CC(C)CO
viscosity [mPa·s], 101.33 kPa
Settings	x1 = 0.1154	x1 = 0.2046	x1 = 0.3086	x1 = 0.4017	x1 = 0.4943	x1 = 0.6102	x1 = 0.7057	x1 = 0.8002	x1 = 0.8978
298.15 K	2.364	1.728	1.287	1.019	0.8243	0.6718	0.5775	0.5104	0.4593
313.15 K	1.56	1.191	0.9221	0.7582	0.6325	0.5324	0.4679	0.4215	0.3866

ClC(Cl)=C(Cl)Cl + CC(C)CO
303.15 K, 101.33 kPa
Settings	viscosity [mPa·s]
x1 = 0.1124	2.28
x1 = 0.2157	1.855
x1 = 0.3156	1.552
x1 = 0.4057	1.353
x1 = 0.5099	1.182
x1 = 0.5996	1.077
x1 = 0.7145	0.977
x1 = 0.8032	0.918
x1 = 0.908	0.857

O=[N+]([O-])c1ccccc1 + CC(C)CO
viscosity [mPa·s], 101.33 kPa
Settings	x1 = 0.063	x1 = 0.1521	x1 = 0.2051	x1 = 0.2864	x1 = 0.376	x1 = 0.4746	x1 = 0.6038	x1 = 0.7066	x1 = 0.8442
298.15 K	2.804	2.416	2.228	2.054	1.884	1.811	1.755	1.701	1.679
303.15 K	2.423	2.072	1.956	1.819	1.677	1.596	1.538	1.495	1.517

CCCCCCCC + CC(C)O
viscosity [mPa·s]
Settings	293.15 K	298.15 K	303.15 K	308.15 K
101 kPa, x2 = 0.0569	–	0.515	–	0.446
101 kPa, x2 = 0.1093	–	0.518	–	0.45
101 kPa, x2 = 0.1441	–	0.524	–	0.451
101 kPa, x2 = 0.2343	–	0.542	–	0.466
101 kPa, x2 = 0.3228	–	0.568	–	0.486
101 kPa, x2 = 0.3517	–	0.579	–	0.497
101 kPa, x2 = 0.4196	–	0.611	–	0.523
101 kPa, x2 = 0.5016	–	0.665	–	0.561
101 kPa, x2 = 0.5603	–	0.717	–	0.601
101 kPa, x2 = 0.6122	–	0.773	–	0.643
101 kPa, x2 = 0.7012	–	0.9	–	0.732
101 kPa, x2 = 0.7937	–	1.088	–	0.877
101 kPa, x2 = 0.9122	–	1.496	–	1.177
101 kPa, x2 = 0.9475	–	1.68	–	1.315
101.32 kPa, x2 = 0.0518	0.539	0.507	0.476	–
101.32 kPa, x2 = 0.0896	0.542	0.51	0.479	–
101.32 kPa, x2 = 0.212	0.562	0.526	0.494	–
101.32 kPa, x2 = 0.282	0.58	0.542	0.507	–
101.32 kPa, x2 = 0.4103	0.644	0.596	0.552	–
101.32 kPa, x2 = 0.6027	0.83	0.752	0.685	–
101.32 kPa, x2 = 0.6988	0.985	0.883	0.795	–
101.32 kPa, x2 = 0.7988	1.225	1.088	0.967	–
101.32 kPa, x2 = 0.9007	1.624	1.429	1.25	–
101.32 kPa, x2 = 0.9496	1.961	1.69	1.482	–

CN(C)C=O + CC(C)O
viscosity [mPa·s], 101 kPa
Settings	298.15 K	303.15 K	308.15 K	313.15 K	318.15 K	323.15 K
x1 = 0.0879	1.65	1.44	1.3	1.14	–	–
x1 = 0.0995	–	1.385	1.237	1.096	0.9913	0.88
x1 = 0.1606	1.46	1.28	1.16	1.03	–	–
x1 = 0.1992	–	1.166	1.057	0.9438	0.8597	0.778
x1 = 0.2389	1.34	1.18	1.08	0.95	–	–
x1 = 0.3011	–	1.034	0.9443	0.8524	0.7903	0.7214
x1 = 0.3433	1.24	1.1	1.01	0.9	–	–
x1 = 0.4009	–	0.9507	0.8752	0.8075	0.7462	0.6851
x1 = 0.44	1.16	1.05	0.96	0.87	–	–
x1 = 0.4512	1.297	–	–	–	–	–
x1 = 0.4737	–	0.9177	0.8467	0.7863	0.7252	0.6742
x1 = 0.5597	1.07	0.98	0.9	0.82	–	–
x1 = 0.5987	–	0.8585	0.7964	0.7362	0.6938	0.6453
x1 = 0.6504	1.01	0.94	0.86	0.8	–	–
x1 = 0.7011	–	0.8282	0.771	0.7187	0.6776	0.6312
x1 = 0.735	0.96	0.89	0.83	0.76	–	–
x1 = 0.7991	–	0.796	0.7476	0.6985	0.6578	0.6196
x1 = 0.8522	0.89	0.83	0.78	0.72	–	–
x1 = 0.8995	–	0.7844	0.7374	0.6874	0.6507	0.614
x1 = 0.9422	0.84	0.79	0.74	0.69	–	–

O=[N+]([O-])c1ccccc1 + CC(C)O
viscosity [mPa·s]
Settings	293.15 K	298.15 K	303.15 K	308.15 K	313.15 K	318.15 K	323.15 K
100 kPa, x1 = 0.081	2.112	1.849	1.625	1.428	1.247	1.101	0.9776
100 kPa, x1 = 0.16	1.892	1.679	1.494	1.333	1.166	1.039	0.9339
100 kPa, x1 = 0.2401	1.742	1.56	1.402	1.264	1.111	1.003	0.9084
100 kPa, x1 = 0.3501	1.624	1.468	1.332	1.212	1.082	0.9879	0.9036
100 kPa, x1 = 0.44	1.597	1.446	1.318	1.203	1.088	1.002	0.9207
100 kPa, x1 = 0.56	1.637	1.482	1.347	1.232	1.134	1.05	0.9715
100 kPa, x1 = 0.6499	1.703	1.54	1.401	1.281	1.187	1.105	1.024
100 kPa, x1 = 0.7399	1.795	1.622	1.475	1.349	1.256	1.171	1.087
100 kPa, x1 = 0.85	1.92	1.739	1.586	1.454	1.355	1.262	1.174
100 kPa, x1 = 0.9399	2.022	1.842	1.685	1.55	1.442	1.342	1.25
101.33 kPa, x1 = 0.0512	–	1.881	1.567	–	–	–	–
101.33 kPa, x1 = 0.1088	–	1.67	1.476	–	–	–	–
101.33 kPa, x1 = 0.1732	–	1.529	1.344	–	–	–	–
101.33 kPa, x1 = 0.2456	–	1.462	1.297	–	–	–	–
101.33 kPa, x1 = 0.3281	–	1.459	1.277	–	–	–	–
101.33 kPa, x1 = 0.4228	–	1.45	1.292	–	–	–	–
101.33 kPa, x1 = 0.5325	–	1.439	1.323	–	–	–	–
101.33 kPa, x1 = 0.661	–	1.523	1.398	–	–	–	–
101.33 kPa, x1 = 0.8145	–	1.603	1.434	–	–	–	–

c1ccccc1 + CC(C)O
viscosity [mPa·s], 101 kPa
Settings	x1 = 0.0575	x1 = 0.144	x1 = 0.225	x1 = 0.362	x1 = 0.558	x1 = 0.651	x1 = 0.732	x1 = 0.798	x1 = 0.886
298.15 K	1.733	1.369	1.139	0.89	0.69	0.639	0.614	0.607	0.602
303.15 K	1.512	1.206	1.015	0.8	0.643	0.593	0.572	0.565	0.561
308.15 K	1.325	1.068	0.905	0.73	0.592	0.551	0.531	0.527	0.524
313.15 K	1.16	0.948	0.814	0.668	0.556	0.511	0.497	0.493	0.493
318.15 K	1.026	0.852	0.732	0.616	0.518	0.475	0.465	0.463	0.461
